Converted amounts (≈) assume the structure as drawn.
Assay: Solubility of the heterocyclic base (adenine) in reaction solvents
Format: physicochemical

For Nc1ncnc2nc[nH]c12 [adenine], the “Solubility at 150° C.” value (solvent DEF) was 13.9 mg/mL (≈ 103 mM), the “Solubiity at RT” value (solvent DEF) was 1.36 mg/mL and the “Solubility at 150° C.” value (solvent DMA) was 37.0 mg/mL (≈ 274 mM). The “Solubiity at RT” value (solvent DMA) was 4.00 mg/mL, the “Solubility at 150° C.” value (solvent DMF) was 29.0 mg/mL (≈ 215 mM) and the “Solubiity at RT” value (solvent DMF) was 2.90 mg/mL.

Reference: patent publication US20060135768A1, “Synthesis for hydroxyalkylated heterocyclic bases” (RIBAPHARM INC., priority 2002, published 2006)
